The subject of one series is human erythrocytes. The series is described as follows: Hemolysis assay. It is filed as cell-based. The procedure: Hemolysis assays. Erythrocytes were isolated from freshly drawn, heparanized human blood and resuspended to 20 vol % in PBS (pH 7.4). In a 96-well microtiter plate, 100 μL erythrocyte suspension was added to 100 μL peptoid solution in PBS (prepared by 1:2 serial dilutions), or 100 μL PBS in the case of negative controls. 100% hemolysis wells contained 100 μL blood cell suspension with 100 μL 0.2 vol % Triton X-100. The plate was incubated for 1 h at 37° C., then each well was diluted with 150 μL PBS. The plate was then centrifuged at 1200 g for 15 min, 100 μL of the supernatant from each well transferred to a fresh microtiter plate, and A350 measured.
Hemolysis assays. Erythrocytes were isolated from freshly drawn, heparanized human blood and resuspended in PBS (pH 7.4) to make a 20% volume suspension. Peptoid solutions were prepared by serial dilution (2:1) in a 96-well microtiter plate. For test wells, 100 μL of erythrocyte suspension was added to 100 μL of peptoid solution in PBS; PBS without peptoid was used as the negative control and 0.2 vol % Triton X-100 as the positive control that indicates 100% hemolysis. After 1 hour incubation at 37° C., each well was diluted with 150 μL PBS. Plates were then centrifuged at 1,200×g for 15 minutes to pellet the cells. 30 μL of the supernatant from each well were transferred to the corresponding well of a second 96-well plate that contains 70 μL PBS.

In another series the test system is B. subtilis (ATCC 6633). The series is classed as cell-based. The conditions noted are these: ATCC 6633. As for the experimental part:
(§1) Whereas the preceding generation of molecules was designed to elucidate structure function relationships of specific molecular parameters (chirality, length, hydrophobicity, etc.), another generation compounds were designed explicitly to explore effects on selectivity. Antimicrobial activity of these compounds was tested against bacterial strains E. coli (ATTC 35218) and B. subtilis (ATTC 6633) in cation-adjusted MHB using the microdilution protocols previously described. The sequences, antimicrobial activities, hemolytic activities, and metabolic inhibitory concentrations against NIH 3T3 mouse fibroblast cells are summarized in Table 3 and the rationale of their design is described below.
(§2) The potencies of all compounds were determined against representative Gram-negative (E. coli ATCC 35218) and Gram-positive (B. subtilis ATCC 6633) biosafety level 1 (BSL1) organisms. In addition to hemolytic activity, the conventional measure of toxicity to mammalian cells, the effect of each ampetoid on NIH 3T3 mouse fibroblast cells was determined using the MTS tetrazolium salt-based calorimetric assay. While hemolysis measures the degree to which erythrocytes are lysed, the MTS assay indirectly quantifies the extent to which cellular metabolic activity is inhibited.
(§3) Screening antibacterial assays. MICs were determined in 96-well microtiter plates in accordance with CLSI M7-A6 protocols. Peptoid solutions with 50 μL total volume were prepared using 2:1 serial dilutions. 50 μL of bacteria inoculum (1×10^6 CFU/mL) prepared in cation-adjusted Mueller-Hinton broth (CAMHB) was added to test wells. Control wells contained 100 μL MHB (no growth) or 50 μL inoculums with 50 μL MHB with no peptoid. […] Reported values were reproducible over three experiments, each containing two parallel trials.

The test system of another series is E. coli (ATCC 35218). The series is classed as cell-based. Particulars: ATCC 35218. The procedure: as §1, §2, §3
A short description of series [1]: MTS assay, metabolic inhibition. The series is classed as cell-based, mouse. The procedure:
as §2
MTS assays. NIH/3T3 cells (ATCC Corporation) cultured at 37° C. and 5% CO2 in complete Dulbecco's modified eagle's media (CDMEM) supplemented with 1% sodium pyruvate, 1% penicillin-streptomycin, 1.5 g/L NaHCO3, and 10% fetal bovine serum. Cells were seeded at a density of 5,000 cells per well for NIH/3T3 cells in 96-well plates (100 μl total volume). A peptoid solution plate (100 μL total volume per well) was prepared by serial dilution of aqueous peptoid stock solution in Hank's balanced salt solution (HBSS) media. The day-old cell monolayers were washed with HBSS and media was replaced with 100 μL HBSS. The contents of the peptoid solution plate were transferred onto corresponding wells of the cell monolayer plate, and 40 μL MTS reagent (Promega, Inc.) was added to each well. After incubating for 3 hours at 37° C., absorbance at 490 nm was determined. […] The average of six replicates is reported.
Background: Tetrazolium dyes change colour on reduction, which living cells bring about.

Where [2] appears, read: Table 6, NIH 3T3 mouse fibroblast cells.

Experimental findings from patent US20100036088A1, “Selective poly-N-substituted glycine antibiotics” (priority 2008, published 2010) are described below.

A word on the IC50: it is the midpoint of a concentration-inhibition curve.

Read-outs that look alike come from different tables or passages of the source. Square brackets hold non-standard residues; d marks the D form. Peptide text beside a SMILES is read from it. Nrpe = C[C@@H](NCC(=O)O)c1ccccc1; Nspe = C[C@H](NCC(=O)O)c1ccccc1; Nlys = NCCCCNCC(=O)O

In the series with human erythrocytes (Table 6), `C[C@H](c1ccccc1)N(CC(N)=O)C(=O)CN(C(=O)CN(CCCCN)C(=O)CN(C(=O)CN(C(=O)CN(CCCCN)C(=O)CN(C(=O)CN(C(=O)CN(CCCCN)C(=O)CN(C(=O)CN(C(=O)CNCCCCN)[C@@H](C)c1ccccc1)[C@H](C)c1ccccc1)[C@@H](C)c1ccccc1)[C@H](C)c1ccccc1)[C@@H](C)c1ccccc1)[C@H](C)c1ccccc1)[C@@H](C)c1ccccc1` [1-Nrpe3,6,9,12, H-(Nlys-Nspe-Nrpe)4-NH2] yielded an HD10 of 16 µM and an HD50 of 67 µM. Further, the “B. subtilis MIC” value in the series on B. subtilis (ATCC 6633) (Table 6) worked out at 1.6 µM. Also, the “E. coli MIC” value in the series with E. coli (ATCC 35218) (Table 6) stood at 6.3 µM. This compound registered a 50% inhibitory concentration (IC50) in series [1] (setting [2]) of 3.8 µM.

In the series with human erythrocytes (Table 6), `C[C@H](c1ccccc1)N(CC(=O)N(CCCCN)CC(=O)N(CC(=O)N(CC(=O)N(CCCCN)CC(=O)N(CC(=O)N(CC(=O)N(CCCCN)CC(=O)N(CC(=O)N(CC(N)=O)[C@@H](C)c1ccccc1)[C@@H](C)c1ccccc1)[C@@H](C)c1ccccc1)[C@@H](C)c1ccccc1)[C@H](C)c1ccccc1)[C@H](C)c1ccccc1)C(=O)CN(C(=O)CNCCCCN)[C@H](C)c1ccccc1` [1-Nrpe2,3,5,6, H-(Nlys-Nrpe-Nrpe)2-(Nlys-Nspe-Nspe)2-NH2] (H-[Nlys][Nrpe][Nrpe][Nlys][Nrpe][Nrpe][Nlys][Nspe][Nspe][Nlys][Nspe][Nspe]-NH2) registered an HD10 of 25 µM and an HD50 of 96 µM. For the same compound, in the series on B. subtilis (ATCC 6633) (Table 6), the “B. subtilis MIC” value turned out to be 0.78 µM. Moreover, in the series with E. coli (ATCC 35218) (Table 6), the “E. coli MIC” value was determined as 6.3 µM. The same compound came in with an IC50 in series [1] (setting [2]) of 4.8 µM.

For the compound `C[C@H](NCC(=O)N(CCCCN)CC(=O)N(CC(=O)N(CC(=O)N(CCCCN)CC(=O)N(CC(=O)N(CC(=O)N(CCCCN)CC(=O)N(CC(=O)N(CC(=O)N(CCCCN)CC(=O)N(CC(N)=O)[C@@H](C)c1ccccc1)[C@@H](C)c1ccccc1)[C@@H](C)c1ccccc1)[C@@H](C)c1ccccc1)[C@@H](C)c1ccccc1)[C@@H](C)c1ccccc1)[C@@H](C)c1ccccc1)c1ccccc1` [1B, H-(Nspe-Nlys-Nspe)4-NH2] (H-[Nspe][Nlys][Nspe][Nspe][Nlys][Nspe][Nspe][Nlys][Nspe][Nspe][Nlys][Nspe]-NH2), the HD50 with human erythrocytes is more than 100 µM. The “B. subtilis MIC” value in the series on B. subtilis (ATCC 6633) worked out at 1.6 µM. Further, in the series with E. coli (ATCC 35218), the “E. coli MIC” value amounted to 6.3 µM. This compound displayed a 50% inhibitory concentration (IC50) in series [1] of 4.9 µM.

`C[C@H](NCC(=O)N(CCCCN)CC(=O)N(CC(=O)N(CCCCN)CC(=O)N(CCCCN)CC(=O)N(CC(=O)N(CC(=O)N(CCCCN)CC(=O)N(CC(=O)N(CCCCN)CC(=O)N(CCCCN)CC(=O)N(CC(=O)N(CC(=O)N(CCCCN)CC(=O)N(CC(N)=O)[C@@H](C)c1ccccc1)[C@@H](C)c1ccccc1)[C@@H](C)c1ccccc1)[C@@H](C)c1ccccc1)[C@@H](C)c1ccccc1)[C@@H](C)c1ccccc1)[C@@H](C)c1ccccc1)c1ccccc1` [1B15mer-Nlys4,10, H-(Nspe-Nlys-Nspe-Nlys-Nlys-Nspe)2-Nspe-Nlys-Nspe-NH2] (H-[Nspe][Nlys][Nspe][Nlys][Nlys][Nspe][Nspe][Nlys][Nspe][Nlys][Nlys][Nspe][Nspe][Nlys][Nspe]-NH2): in the series on human erythrocytes, the HD10 is listed as >200/>200 μM and the HD50 is given as >200/>200 μM. Moreover, in the series on B. subtilis (ATCC 6633), the “B. subtilis MIC” value turned out to be 0.78 µM. Also, the “E. coli MIC” value in the series on E. coli (ATCC 35218) came out at 50 µM. In series [1], this compound gave a 50% inhibitory concentration (IC50) of 16 µM.

In the series on human erythrocytes, `C[C@@H](c1ccccc1)N(CC(N)=O)C(=O)CN(C(=O)CN(CCCCN)C(=O)CN(C(=O)CN(C(=O)CN(CCCCN)C(=O)CN(C(=O)CN(C(=O)CN(CCCCN)C(=O)[C@@H]1CCCN1C(=O)CN(C(=O)CNCCCCN)[C@@H](C)c1ccccc1)[C@@H](C)c1ccccc1)[C@@H](C)c1ccccc1)[C@@H](C)c1ccccc1)[C@@H](C)c1ccccc1)[C@@H](C)c1ccccc1` [1-Pro3, H-Nlys-Nspe-L-Pro-(Nlys-Nspe-Nspe)3-NH2] (H-[Nlys][Nspe]P[Nlys][Nspe][Nspe][Nlys][Nspe][Nspe][Nlys][Nspe][Nspe]-NH2) returned an HD10 of 74 µM and an HD50 of more than 200 µM. The “B. subtilis MIC” value in the series on B. subtilis (ATCC 6633) was 1.6 µM. In addition, the “E. coli MIC” value in the series with E. coli (ATCC 35218) is 12.5 µM. This compound came in with an IC50 in series [1] of 12 µM.

Consider `C[C@@H](c1ccccc1)N(CC(=O)N(CCCCN)CC(=O)N(CC(=O)N(CC(=O)N(CCCCN)CC(=O)N(CC(=O)N(CC(=O)N(CCCCN)CC(=O)N(CC(=O)N(CC(=O)N(CCCCN)CC(N)=O)[C@@H](C)c1ccccc1)[C@@H](C)c1ccccc1)[C@@H](C)c1ccccc1)[C@@H](C)c1ccccc1)[C@@H](C)c1ccccc1)[C@@H](C)c1ccccc1)C(=O)CN(C(=O)CNCCCCN)[C@@H](C)c1ccccc1` [113mer, H-(Nlys-Nspe-Nspe)4-Nlys-NH2] (H-[Nlys][Nspe][Nspe][Nlys][Nspe][Nspe][Nlys][Nspe][Nspe][Nlys][Nspe][Nspe][Nlys]-NH2), for which, in the series on human erythrocytes, the HD10 stood at 21 µM and the HD50 is more than 100 µM. Also, the “B. subtilis MIC” value in the series with B. subtilis (ATCC 6633) worked out at 0.78 µM. The “E. coli MIC” value with E. coli (ATCC 35218) amounted to 3.1 µM. Besides, the IC50 in series [1] worked out at 5.6 µM.

Turning to `C[C@H](NCC(=O)N(CC(=O)N(CCCCN)CC(=O)N(CC(=O)N(CC(=O)N(CCCCN)CC(=O)N(CC(=O)N(CC(=O)N(CCCCN)CC(=O)N(CC(=O)N(CC(=O)N(CCCCN)CC(N)=O)[C@@H](C)c1ccccc1)[C@@H](C)c1ccccc1)[C@@H](C)c1ccccc1)[C@@H](C)c1ccccc1)[C@@H](C)c1ccccc1)[C@@H](C)c1ccccc1)[C@@H](C)c1ccccc1)c1ccccc1` [1C, H-(Nspe-Nspe-Nlys)4-NH2] (H-[Nspe][Nspe][Nlys][Nspe][Nspe][Nlys][Nspe][Nspe][Nlys][Nspe][Nspe][Nlys]-NH2), in the series on human erythrocytes, the HD10 came out at 25 µM and the HD50 is more than 100 µM. Besides, the “B. subtilis MIC” value in the series on B. subtilis (ATCC 6633) worked out at 1.6 µM. Moreover, in the series on E. coli (ATCC 35218), the “E. coli MIC” value is 6.3 µM. The IC50 in series [1] is 5.6 µM.
